Entries after “also recorded” stand apart in the source; their conditions may differ. Like-named read-outs stand apart in the source and are kept apart here. Marks after values point to notes of the source that are not given here.
Tests used:
Type in all cases: in vivo
Aristotle bell pepper [1] = test: Marketable yield per plant, greenhouse Fall 2007, bell pepper; details: for Marketable yield per plant, Pepper: foliar application at 3 and 7 WAT, rates not separated; for Bell pepper yield compared with control (in words): foliar applications, P<0.05
Procedure: (§1) The following experiments were performed in a green house during the fall of 2007 at GCREC, Balm, University of Florida. Fifteen products, at 3 different application rates were examined. The plot size was 2-gallon pots. Crop set-up, procedures and variables were as follows.
(§2) Transplants of ‘Florida-47’ tomato and ‘Aristotle’ bell pepper plants in the 4-true leaf stage (about 6 inches tall) were planted in 2-gal pots on Aug. 27, 2007. Pots were filled with a commercially available planting medium. This medium was selected based on the mineral composition of the products to be applied without providing significant nutritional inputs to the crops. Irrigation was provided with drip lines delivering between 0.50 and 0.33 gal/day/pot for tomato and bell pepper, respectively, and the crops were irrigated three times per day. No foliar pesticides were necessary.
(§3) There were four control treatments corresponding to each target micronutrient in which non-Fe, non-Mn, non-Zn or non-Cu pots received all other essential nutrients under non-limiting conditions.
(§4) Treatments were applied at three rates (high, medium and low) obtained from the estimated concentration of Zn, Fe, Cu, and Mn foliarly-applied in tomato and bell pepper in field situations (Table 1). Products were weighed and dissolved in 200 ml of deionized water with a non-ionic surfactant and applied to the newly-matured open leaves of each crop at 3 and 7 weeks after transplant (WAT). Treated pots were isolated during application to avoid cross-contamination of other treatments.
(§5) Medium nutrient concentration was determined 1 week before treatment. The mineral composition of the medium was 26.8 ppm NH4—N, 49 ppm NO3—N, 15.8 ppm P, 91.2 ppm K, 82.3 ppm Ca, 58.2 ppm Mg, 23.9 ppm Na, 125.6 ppm S, 1.33 ppm Fe, 0.39 ppm Mn, 0.35 ppm Zn, 0.05 pp, Cu, 0.04 ppm B, 0 ppm Mo, 0.73 ppm Al, and 12.1 ppm Si. The pH of the medium was 5.36 and the electric conductivity was 1.38 mS/cm. The foliar tissue analysis was performed at 6 WAT and the concentration of N, P, K, Mg, Ca, S, B, Zn, Mn, Fe, and Cu was determined by a commercial laboratory. Plant toxicity was determined at 4 WAT by using a 0-10 visual scale, where 0=no visible damage and 10=total plant death. Marketable fruit weight was collected 2 times in bell pepper and 4 times in tomato following USDA standards.
(§6) Data were analyzed using a general linear model, and means were separated using orthogonal contrasts at the 5% significance level.

Florida-47 tomato [2] = test: Marketable yield per plant, greenhouse Fall 2007, tomato; details: for Marketable yield per plant, Tomato: foliar application at 3 and 7 WAT, rates not separated; for Tomato yield compared with control (in words): foliar applications, P<0.05
Procedure: as §1, §2, §3, §4, §5, §6

Tygress tomato plants = test: Marketable yield, open-field tomato (Examples 7-10); details: open field; for Marketable yield, Tomato: lb/acre/season: BIOX-Z 1.3, Cu 6.7, M 23.0, Fe 3.2, INC 4.0, INZ 0.6, CM 10.0, GZ 1.0, GF 4.0, EDZ 1.4, EDM 23.0
Summary of the method: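 Open-field Florida trial, spring 2008: transplants at 4-true-leaf stage on drip-irrigated raised beds were foliar-sprayed at 3 and 5 WAT (BIOX-CM at 4 and 5 WAT) at 60 gal/acre with non-ionic surfactant. Most recent mature leaves were sampled at 6 WAT. Tomato fruit was USDA-graded and analysed for minerals.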

Aristotle bell pepper [3] = details: 1 week after treatment, scale 0 = no visible injury, 10 = plant death
Summary of the method: (§7)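 Florida-47 tomato and Aristotle bell pepper transplants in 2-gal pots with low-nutrient medium (pH 5.36), drip-irrigated; products at three rates in deionized water plus non-ionic surfactant sprayed on newly matured leaves at 3 and 7 WAT. Toxicity scored at 4 WAT (0=no damage, 10=death); foliar tissue analysed at 6 WAT; marketable fruit harvested 4 times (tomato).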

Florida-47 tomato [4] = details: for Tomato toxicity: 1 week after treatment, scale 0 = no visible injury, 10 = plant death
Summary of the method: as §7

Molecule	Marketable yield per plant, Pepper (Aristotle bell pepper [1])	Bell pepper yield compared with control (in words) (Aristotle bell pepper [1])	Marketable yield per plant, Tomato (Florida-47 tomato [2])	Tomato yield compared with control (in words) (Florida-47 tomato [2])	Tomato marketable yield compared to control, statement (Tygress tomato plants)	Marketable yield, Tomato (Tygress tomato plants)	Pepper toxicity (Aristotle bell pepper [3]; High rate)	Pepper toxicity (Aristotle bell pepper [3]; Low rate)	Pepper toxicity (Aristotle bell pepper [3]; Medium rate)	Tomato toxicity (Florida-47 tomato [4]; High rate)	Tomato toxicity (Florida-47 tomato [4]; Low rate)	Tomato toxicity (Florida-47 tomato [4]; Medium rate)	Foliar injury (in words) (Florida-47 tomato [4]; copper concentration of 0.004% to 0.061% by weight, tomato and bell pepper stated together)	Toxic effect on the plant (in words) (Florida-47 tomato [4]; manganese concentration of 0.015% to 0.124% by weight, both crops)
CSCCC(O)C(=O)[O-].CSCCC(O)C(=O)[O-].[Zn+2] (stereo not drawn) [BIOX-Z, Zn-HMTBA]	2.9* lb/plant	significantly increased	2.9* lb/plant	significantly increased	significantly higher than the control tomato harvest; also recorded: higher marketable yield compared to control	17.5 ton/acre	0	0	0	0	0	0	–	–
Fe-HMTBA [BIOX-Fe]	–	–	–	–	significantly higher tomato marketable yield compared to control	17.8 a ton/acre	–	–	–	–	–	–	–	–
CSCCC(O)C(=O)[O-].CSCCC(O)C(=O)[O-].[Cu+2] (stereo not drawn) [BIOX-Cu, Cu-HMTBA]	4.0* lb/plant	significantly increased	5.5* lb/plant	significantly increased	significantly increased tomato marketable yields relative to control; also recorded: significantly higher marketable yield of tomato fruits compared to control	19.2 a ton/acre	0	0	0	0	0	0	no foliar injury	–
CSCCC(O)C(=O)[O-].CSCCC(O)C(=O)[O-].[Mn+2] (stereo not drawn) [BIOX-M, Mn-HMTBA]	3.9* lb/plant	significantly increased	5.8* lb/plant	significantly increased	significantly higher marketable yield of tomato fruits; also recorded: higher marketable yield of tomato fruits compared to control	18.1 a ton/acre	0	0	0	0	0	0	–	no toxic effect
EDTA chelated zinc [BIOX-EDZ]	–	–	–	–	significantly higher than the control tomato harvest	16.2 ton/acre	0	0	0	0	0	0	–	–

Reference: US20110098177A1, “METHODS AND COMPOSITIONS OF PLANT MICRONUTRIENTS” (NOVUS INTERNATIONAL INC., priority 2006, published 2011)
